For the experiment, the target named is T1, recombinant human GluN1/GluN2A receptor (Homo sapiens, UniProt Q05586+Q12879).
T1 construct: expressed in transfected cells; host or cells: HEK293, tetracycline-inducible expression
The experiment in a line: Whole-cell patch clamp of mammalian cells (Syncropatch 384i), NMDA modulation. The following applies: HEK293 cells, human GluN1/GluN2A, glutamate 1 μM / glycine 100 μM, -80 mV, peak amplitude increase; for EC50: read-out: EC50. Type of experiment: cell-based. The method, boiled down: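 HEK293 cells with tetracycline-induced (50 ng/ml, 18–24 h) human GluN1/GluN2A, automated whole-cell recording at −80 mV, pH 7.4 external. After 120 s compound pre-incubation, compound applied with glutamate 1 μM/glycine 100 μM; fold peak increase (Icomp/Icontrol)−1 over 8 concentrations fitted four-parameter logistic.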

Where two headings read alike, the source gives them in different places. A value given as a limit tells only on which side of the number the result lay.

T1 sequence (Q12879 23-1464, other chains not shown): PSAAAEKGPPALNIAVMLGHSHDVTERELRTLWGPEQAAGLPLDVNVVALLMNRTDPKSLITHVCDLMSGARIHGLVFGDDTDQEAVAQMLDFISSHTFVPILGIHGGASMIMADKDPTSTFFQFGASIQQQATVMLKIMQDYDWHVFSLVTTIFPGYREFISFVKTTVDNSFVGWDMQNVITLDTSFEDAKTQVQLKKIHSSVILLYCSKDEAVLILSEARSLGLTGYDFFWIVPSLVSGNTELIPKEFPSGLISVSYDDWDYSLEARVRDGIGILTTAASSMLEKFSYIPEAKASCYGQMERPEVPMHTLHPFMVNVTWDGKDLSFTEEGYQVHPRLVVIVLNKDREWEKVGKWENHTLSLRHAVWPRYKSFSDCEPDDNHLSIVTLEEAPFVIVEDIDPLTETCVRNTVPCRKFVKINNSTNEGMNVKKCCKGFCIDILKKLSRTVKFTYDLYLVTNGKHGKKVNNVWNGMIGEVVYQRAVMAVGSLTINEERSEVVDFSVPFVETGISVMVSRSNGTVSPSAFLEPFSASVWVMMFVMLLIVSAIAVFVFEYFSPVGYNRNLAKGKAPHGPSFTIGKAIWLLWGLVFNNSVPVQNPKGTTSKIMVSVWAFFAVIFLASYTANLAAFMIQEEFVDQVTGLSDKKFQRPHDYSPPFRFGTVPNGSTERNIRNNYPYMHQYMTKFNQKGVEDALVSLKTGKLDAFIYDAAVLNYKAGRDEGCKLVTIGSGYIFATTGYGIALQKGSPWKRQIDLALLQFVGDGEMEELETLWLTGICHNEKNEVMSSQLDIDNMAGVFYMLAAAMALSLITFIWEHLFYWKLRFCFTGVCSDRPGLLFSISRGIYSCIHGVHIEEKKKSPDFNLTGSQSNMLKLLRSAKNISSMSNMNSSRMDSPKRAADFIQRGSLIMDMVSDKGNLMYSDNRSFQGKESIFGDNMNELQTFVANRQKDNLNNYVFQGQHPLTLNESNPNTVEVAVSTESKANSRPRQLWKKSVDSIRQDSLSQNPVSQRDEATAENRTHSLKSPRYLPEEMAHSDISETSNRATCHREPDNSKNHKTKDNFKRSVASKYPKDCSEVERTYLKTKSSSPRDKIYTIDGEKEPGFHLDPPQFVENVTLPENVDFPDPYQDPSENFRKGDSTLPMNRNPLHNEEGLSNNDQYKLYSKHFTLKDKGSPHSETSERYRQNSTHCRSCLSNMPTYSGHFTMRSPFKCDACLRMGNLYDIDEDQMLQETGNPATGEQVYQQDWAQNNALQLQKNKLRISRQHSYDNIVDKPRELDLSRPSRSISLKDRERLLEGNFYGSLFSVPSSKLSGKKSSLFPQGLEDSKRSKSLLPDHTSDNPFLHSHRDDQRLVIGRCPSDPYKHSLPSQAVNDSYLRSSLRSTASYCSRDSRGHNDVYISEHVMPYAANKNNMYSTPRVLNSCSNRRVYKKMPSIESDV

The Emax is the size of the effect at its maximum, as opposed to the concentration needed. One may read the EC50 as the midpoint of the concentration-response curve. Turning to `CC[C@]1(O)CC[C@@]2(C)[C@@H](CC[C@H]3[C@@H]4[C@@H](C)C[C@H]([C@H](C)CC[C@](C)(O)C(F)(F)F)[C@@]4(C)CC[C@@H]32)C1` [Compound B-14, (3S,5S,8R,9S,10S,13R,14S,15S,17R)-3-ethyl-10,13,15-trimethyl-17-((2R,5S)-6,6,6-trifluoro-5-hydroxy-5-methylhexan-2-yl)hexadecahydro-1H-cyclopenta[a]phenanthren-3-ol], where the note is “Table B-2”, the maximal effect (Emax) is over 200% and the EC50 lay in the range of 0.001 to 0.1 µM.

Turning to `CC[C@]1(O)CC[C@@]2(C)[C@@H](CC[C@H]3[C@@H]4[C@H](C)C[C@H]([C@H](C)CC[C@](C)(O)C(F)(F)F)[C@@]4(C)CC[C@@H]32)C1` [Compound B-15, (3S,5S,8R,9S,10S,13R,14S,15R,17R)-3-ethyl-10,13,15-trimethyl-17-((2R,5S)-6,6,6-trifluoro-5-hydroxy-5-methylhexan-2-yl)hexadecahydro-1H-cyclopenta[a]phenanthren-3-ol], where the note is “Table B-2”, the maximal effect (Emax) was 100 to 200% and the EC50 lay in the range of 0.001 to 0.1 µM.

Take `CC[C@]1(O)CC[C@@]2(C)[C@@H](CC[C@H]3[C@@H]4[C@H](C)C[C@H]([C@H](C)CC[C@@](C)(O)C(F)(F)F)[C@@]4(C)CC[C@@H]32)C1` [Compound B-16, (3S,5S,8R,9S,10S,13R,14S,15R,17R)-3-ethyl-10,13,15-trimethyl-17-((2R,5R)-6,6,6-trifluoro-5-hydroxy-5-methylhexan-2-yl)hexadecahydro-1H-cyclopenta[a]phenanthren-3-ol]: under “Table B-2”, the maximal response (Emax) is 100 to 200% and the EC50 lay in the range of 0.1 to 0.5 µM.

For the compound `CC[C@]1(O)CC[C@@]2(C)[C@@H](CC[C@H]3[C@@H]4[C@H](C5CC5)C[C@H]([C@H](C)CCCC(C)(C)O)[C@@]4(C)CC[C@@H]32)C1` [Compound B-17, (3S,5S,8R,9S,10S,13R,14S,15S,17R)-15-cyclopropyl-3-ethyl-17-((R)-6-hydroxy-6-methylheptan-2-yl)-10,13-dimethylhexadecahydro-1H-cyclopenta[a]phenanthren-3-ol], where the note is “Table B-2”, the Emax lay within 100 to 200% and the EC50 lay in the range of 0.1 to 0.5 µM.

Take `CC[C@]1(O)CC[C@@]2(C)[C@@H](CC[C@H]3[C@@H]4[C@H](C)C[C@H]([C@H](C)CCCC(C)(C)O)[C@@]4(C)CC[C@@H]32)C1` [Compound B-18, (3S,5S,8R,9S,10S,13R,14S,15R,17R)-3-ethyl-17-((R)-6-hydroxy-6-methylheptan-2-yl)-10,13,15-trimethylhexadecahydro-1H-cyclopenta[a]phenanthren-3-ol]: where the note is “Table B-2”, the Emax lay within 100 to 200% and the EC50 was 0.001 to 0.1 µM.

With `CC[C@]1(O)CC[C@@]2(C)[C@@H](CC[C@H]3[C@@H]4[C@@H](C5CC5)C[C@H]([C@H](C)CCCC(C)(C)O)[C@@]4(C)CC[C@@H]32)C1` [Compound B-19, (3S,5S,8R,9S,10S,13R,14S,15R,17R)-15-cyclopropyl-3-ethyl-17-((R)-6-hydroxy-6-methylheptan-2-yl)-10,13-dimethylhexadecahydro-1H-cyclopenta[a]phenanthren-3-ol], under “Table B-2”, the Emax fell in the range of 100 to 200% and the half-maximal effective concentration (EC50) is 0.1 to 0.5 µM.

In the case of `CC[C@]1(O)CC[C@@]2(C)C(=CC[C@H]3[C@@H]4[C@@H]5C[C@@H]5[C@H]([C@H](C)CCCC(C)(C)O)[C@@]4(C)CC[C@@H]32)C1` [Compound B-20, (2S,4aR,4bS,6aR,7S,7aS,8aR,8bS,8cR)-2-ethyl-7-((R)-6-hydroxy-6-methylheptan-2-yl)-4a,6a-dimethyl-1,2,3,4,4a,4b,5,6,6a,7,7a,8,8a,8b,8c,9-hexadecahydrocyclopropa[4,5]cyclopenta[1,2-a]phenanthren-2-ol], where the note is “Table B-2”, the maximal response (Emax) was 100 to 200% and the EC50 was in the range of 0.001 to 0.1 µM.

As for `CC[C@]1(O)CC[C@@]2(C)C(=CC[C@H]3[C@@H]4[C@H](C)C[C@H]([C@H](C)CCCC(C)(C)O)[C@@]4(C)CC[C@@H]32)C1` [Compound B-21, (3S,8R,9S,10R,13R,14S,15R,17R)-3-ethyl-17-((R)-6-hydroxy-6-methylheptan-2-yl)-10,13,15-trimethyl-2,3,4,7,8,9,10,11,12,13,14,15,16,17-tetradecahydro-1H-cyclopenta[a]phenanthren-3-ol], under “Table B-2”, the EC50 is 0.001 to 0.1 µM.

Regarding `CC[C@]1(O)CC[C@@]2(C)[C@@H](CC[C@@H]3[C@@H]2CC[C@]2(C)[C@@H]([C@H](C)CCCC(C)(C)O)[C@H](C)C[C@@H]32)C1` [Compound B-22, (3S,5S,8R,9S,10S,13S,14S,16R,17S)-3-ethyl-17-((R)-6-hydroxy-6-methylheptan-2-yl)-10,13,16-trimethylhexadecahydro-1H-cyclopenta[a]phenanthren-3-ol], for the setting “Table B-2”, the Emax was over 200% and the EC50 was in the range of 0.1 to 0.5 µM.

Consider `CC[C@]1(O)CC[C@@]2(C)[C@@H](CC[C@@H]3[C@@H]2CC[C@]2(C)[C@@H]([C@H](C)CC[C@H](O)C(C)C)[C@H](C)C[C@@H]32)C1` [Compound B-23, (3S,5S,8R,9S,10S,13S,14S,16R,17S)-3-ethyl-17-((2R,5S)-5-hydroxy-6-methylheptan-2-yl)-10,13,16-trimethylhexadecahydro-1H-cyclopenta[a]phenanthren-3-ol], for which, under “Table B-2”, the Emax was over 200% and the EC50 was 0.001 to 0.1 µM.

For the compound `CC[C@]1(O)CC[C@@]2(C)[C@@H](CC[C@@H]3[C@@H]2CC[C@]2(C)[C@@H]([C@H](C)CC[C@@H](O)C(C)C)[C@H](C)C[C@@H]32)C1` [Compound B-24, (3S,5S,8R,9S,10S,13S,14S,16R,17S)-3-ethyl-17-((2R,5R)-5-hydroxy-6-methylheptan-2-yl)-10,13,16-trimethylhexadecahydro-1H-cyclopenta[a]phenanthren-3-ol], under “Table B-2”, the Emax is over 200% and the concentration for a half-maximal effect (EC50) was 0.1 to 0.5 µM.

For `CC[C@]1(O)CC[C@@]2(C)[C@@H](CC[C@@H]3[C@@H]2CC[C@]2(C)[C@@H]([C@H](C)CC[C@@H](O)C(C)(C)C#N)CC[C@@H]32)C1` [Compound C-1, (3R,6R)-6-((3S,5S,8R,9S,10S,13R,14S,17R)-3-ethyl-3-hydroxy-10,13-dimethylhexadecahydro-1H-cyclopenta[a]phenanthren-17-yl)-3-hydroxy-2,2-dimethylheptanenitrile], where the note is “Table C-2”, the Emax was over 200% and the EC50 lay within 0.001 to 0.1 µM.

Consider `CC[C@]1(O)CC[C@@]2(C)[C@@H](CC[C@@H]3[C@@H]2CC[C@]2(C)[C@@H]([C@H](C)CC[C@H](O)C(C)(C)C#N)CC[C@@H]32)C1` [Compound C-2, (3S,6R)-6-((3S,5S,8R,9S,10S,13R,14S,17R)-3-ethyl-3-hydroxy-10,13-dimethylhexadecahydro-1H-cyclopenta[a]phenanthren-17-yl)-3-hydroxy-2,2-dimethylheptanenitrile], for which, where the note is “Table C-2”, the Emax lay in the range of 100 to 200% and the EC50 was in the range of 0.001 to 0.1 µM.

As for `CC[C@]1(O)CC[C@@]2(C)[C@@H](CC[C@@H]3[C@@H]2CC[C@]2(C)[C@@H]([C@H](C)CC[C@@H](O)C4(C#N)CC4)CC[C@@H]32)C1` [Compound C-3, 1-((1R,4R)-4-((3S,5S,8R,9S,10S,13R,14S,17R)-3-ethyl-3-hydroxy-10,13-dimethylhexadecahydro-1H-cyclopenta[a]phenanthren-17-yl)-1-hydroxypentyl)cyclopropanecarbonitrile], where the note is “Table C-2”, the maximum response (Emax) is over 200% and the EC50 lay within 0.001 to 0.1 µM.

Consider `CC[C@]1(O)CC[C@@]2(C)[C@@H](CC[C@@H]3[C@@H]2CC[C@]2(C)[C@@H]([C@H](C)CC[C@H](O)C4(C#N)CC4)CC[C@@H]32)C1` [Compound C-4, 1-((1S,4R)-4-((3S,5S,8R,9S,10S,13R,14S,17R)-3-ethyl-3-hydroxy-10,13-dimethylhexadecahydro-1H-cyclopenta[a]phenanthren-17-yl)-1-hydroxypentyl)cyclopropanecarbonitrile], for which, where the note is “Table C-2”, the maximal effect (Emax) was under 100% and the EC50 lay in the range of 0.1 to 0.5 µM.

With `CC[C@H](C#N)[C@H](O)CC[C@@H](C)[C@H]1CC[C@H]2[C@@H]3CC[C@H]4C[C@](O)(CC)CC[C@]4(C)[C@H]3CC[C@]12C` [Compound C-5, (2R,3R,6R)-2-ethyl-6-((3S,5S,8R,9S,10S,13R,14S,17R)-3-ethyl-3-hydroxy-10,13-dimethylhexadecahydro-1H-cyclopenta[a]phenanthren-17-yl)-3-hydroxyheptanenitrile], where the note is “Table C-2”, the Emax is over 200% and the EC50 was in the range of 0.001 to 0.1 µM.

Turning to `CC[C@H](C#N)[C@@H](O)CC[C@@H](C)[C@H]1CC[C@H]2[C@@H]3CC[C@H]4C[C@](O)(CC)CC[C@]4(C)[C@H]3CC[C@]12C` [Compound C-6, (2R,3S,6R)-2-ethyl-6-((3S,5S,8R,9S,10S,13R,14S,17R)-3-ethyl-3-hydroxy-10,13-dimethylhexadecahydro-1H-cyclopenta[a]phenanthren-17-yl)-3-hydroxyheptanenitrile], where the note is “Table C-2”, the Emax lay in the range of 100 to 200% and the EC50 was in the range of 0.1 to 0.5 µM.

As for `CC[C@@H](C#N)[C@H](O)CC[C@@H](C)[C@H]1CC[C@H]2[C@@H]3CC[C@H]4C[C@](O)(CC)CC[C@]4(C)[C@H]3CC[C@]12C` [Compound C-7, (2S,3R,6R)-2-ethyl-6-((3S,5S,8R,9S,10S,13R,14S,17R)-3-ethyl-3-hydroxy-10,13-dimethylhexadecahydro-1H-cyclopenta[a]phenanthren-17-yl)-3-hydroxyheptanenitrile], under “Table C-2”, the maximal response (Emax) was over 200% and the EC50 was in the range of 0.001 to 0.1 µM.

Source of the values: patent US20240368214A1, “POSITIVE NMDA-MODULATING COMPOUNDS AND METHODS OF USE THEREOF” (SAGE THERAPEUTICS, INC., priority 2021, published 2024).
